Molecules are shown by their SMILES. “And” between values parts separate entries of the source, which are not always exact repeats. Equal entries are not always repeated.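 48-hour exposure; five concentrations; linearly interpolated endpoints. GI50 marks 50% less growth. TGI: concentration producing complete growth inhibition.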

Among the test systems are DU-145 prostate; MOLT-4 leukemia; SK-OV-3 ovarian; PC-3 prostate; SNB-19 CNS; SK-MEL-28 melanoma; IGROV1 ovarian.
Common to all, as to test: NCI tumour cell line growth inhibition, 48 h

Regarding `Cc1ccc(S(=O)(=O)Oc2ccc([N+](=O)[O-])cc2[N+](=O)[O-])cc1`, the GI50 in the experiment on DU-145 prostate is 11.4 µM; with MOLT-4 leukemia it was 3.82 µM; in the experiment with SK-OV-3 ovarian it was 9.4 µM; with PC-3 prostate, 5.15 µM; in the experiment on SNB-19 CNS it was 17.2 µM; with SK-MEL-28 melanoma, 13 µM. In the experiment on IGROV1 ovarian, the GI50 is 2.46 µM. Further, the TGI in the experiment with DU-145 prostate was determined as 23.5 µM; with MOLT-4 leukemia it was 55.1 µM; with SK-OV-3 ovarian it was 91.3 µM; in the experiment with PC-3 prostate, 26.5 µM; in the experiment with SNB-19 CNS, 38.1 µM; with SK-MEL-28 melanoma it was 26.4 µM. This molecule displayed a TGI in the experiment with IGROV1 ovarian of 8.37 µM.

`Sc1ccc2ccccc2c1CNCc1ccccc1`: the TGI in the experiment with DU-145 prostate is 69.3 µM; with MOLT-4 leukemia, 6.59 µM; in the experiment with SK-OV-3 ovarian it was 41.1 µM; in the experiment with PC-3 prostate, > 100 µM; in the experiment with SNB-19 CNS it was > 100 µM; with SK-MEL-28 melanoma it was 69.7 µM. This molecule also returned a TGI in the experiment on IGROV1 ovarian of 6.97 µM.

As for `COC(=O)NC1(NC(=O)OC)NC(=O)c2cc(OC)c(OC)cc2N1`, the TGI in the experiment on DU-145 prostate, with PC-3 prostate, in the experiment with SNB-19 CNS, in the experiment on SK-MEL-28 melanoma and in the experiment with IGROV1 ovarian was > 100 µM throughout.

For the molecule `COc1cc2c(F)nccc2cc1C(=O)N[C@@H](c1ccc(F)c(Cl)c1)[C@@H]1C[C@@H](O)CN1`, the GI50 with DU-145 prostate was 6.84 µM; in the experiment on MOLT-4 leukemia, 0.188 µM; in the experiment with SK-OV-3 ovarian, 0.268 µM; with PC-3 prostate, 0.54 µM; in the experiment with SNB-19 CNS, 0.847 µM; in the experiment on SK-MEL-28 melanoma it was 4.48 µM. In addition, the GI50 in the experiment with IGROV1 ovarian was 0.0573 µM. Besides, the TGI was 24 µM with DU-145 prostate; > 41.6 µM in the experiment with MOLT-4 leukemia; 13.7 µM in the experiment with SK-OV-3 ovarian; > 43.3 µM in the experiment on PC-3 prostate; 18.5 µM with SNB-19 CNS; 20.2 µM in the experiment on SK-MEL-28 melanoma. For the same molecule, the TGI in the experiment on IGROV1 ovarian turned out to be 11.4 µM.

Turning to `CCN1C(=O)N(CC)C2C1NN=c1s/c(=C\c3ccccc3F)c(=O)n12` (stereo unspecified), the GI50 in the experiment on DU-145 prostate was 0.0398 µM; in the experiment on MOLT-4 leukemia, 0.0419 µM; in the experiment on SK-OV-3 ovarian, 0.054 µM; with PC-3 prostate, 0.04 µM; in the experiment with SNB-19 CNS it was 0.0489 µM; in the experiment with SK-MEL-28 melanoma it was 62.4 µM. The GI50 with IGROV1 ovarian is 0.0512 µM. Besides, the TGI is > 100 µM with DU-145 prostate; > 100 µM in the experiment with MOLT-4 leukemia; 77.5 µM with SK-OV-3 ovarian; > 100 µM in the experiment with PC-3 prostate; > 100 µM with SNB-19 CNS; > 100 µM in the experiment with SK-MEL-28 melanoma. In the experiment with IGROV1 ovarian, the TGI was > 43.4 µM.

Take `CCC(=O)C1(c2ccccc2)CCN(C)CC1`: the TGI in the experiment with DU-145 prostate, in the experiment with MOLT-4 leukemia, in the experiment with SK-OV-3 ovarian, in the experiment on PC-3 prostate, with SNB-19 CNS and in the experiment with SK-MEL-28 melanoma was > 100 µM throughout. Also, the TGI with IGROV1 ovarian was > 100 µM.

On to `Cc1cc(C(=O)Nc2nc3cccc(Cl)c3n2[C@@H]2CCCCN(C(=O)/C=C/CN(C)C)C2)ccn1`, for which the GI50 in the experiment on DU-145 prostate was 6.19 µM; with MOLT-4 leukemia it was 7.13 µM; with SK-OV-3 ovarian, 0.0792 µM; in the experiment with PC-3 prostate it was 9.22 µM; in the experiment on SNB-19 CNS, 12.9 µM; with SK-MEL-28 melanoma, 12.8 µM. For the same molecule, the GI50 in the experiment on IGROV1 ovarian is 0.634 µM. Moreover, the TGI in the experiment on DU-145 prostate amounted to 45.2 µM; with MOLT-4 leukemia, 33.3 µM; with SK-OV-3 ovarian, 9.03 µM; in the experiment on PC-3 prostate, 28.2 µM; in the experiment with SNB-19 CNS, 31.2 µM; with SK-MEL-28 melanoma, 27 µM. The TGI in the experiment with IGROV1 ovarian was determined as 15.1 µM.

On to `CCOC(CCCNCCCn1c2c(c3cc(OC)c(OC)cc3c1=O)C(=O)c1cc3c(cc1-2)OCO3)OCC`, for which the GI50 was 6.47 µM in the experiment with SK-OV-3 ovarian; 5.38 µM in the experiment with PC-3 prostate; 6.13 µM with SNB-19 CNS; 6.22 µM with SK-MEL-28 melanoma; 0.889 µM with IGROV1 ovarian. Besides, the TGI in the experiment on SK-OV-3 ovarian is 12.8 µM; in the experiment on PC-3 prostate, 11.3 µM; in the experiment on SNB-19 CNS, 12.3 µM; with SK-MEL-28 melanoma, 12.5 µM; in the experiment on IGROV1 ovarian, 9.66 µM.

As to `CC(C)CCSC1=CC(=O)c2ccccc2C1=O`, the GI50 is 12.1 µM with DU-145 prostate; 0.228 µM with MOLT-4 leukemia; 26.1 µM in the experiment with SK-OV-3 ovarian; 1.96 µM in the experiment with PC-3 prostate; 30 µM with SNB-19 CNS; 5.7 µM in the experiment on SK-MEL-28 melanoma. Also, the GI50 with IGROV1 ovarian is 1.06 µM. In addition, the TGI in the experiment with DU-145 prostate is 25.8 µM; in the experiment on MOLT-4 leukemia, 0.611 µM; in the experiment with SK-OV-3 ovarian it was > 81.2 µM; in the experiment with PC-3 prostate, 6.85 µM; in the experiment on SNB-19 CNS, > 100 µM; in the experiment on SK-MEL-28 melanoma it was 10.7 µM. In the experiment on IGROV1 ovarian, this molecule gave a TGI of 5 µM.

Consider `CCN(CC)c1ccc(C2CC(c3cc(OC)c(OC)c(OC)c3)=NN2)cc1` (stereo unspecified), for which the GI50 in the experiment on DU-145 prostate is 0.305 µM; with MOLT-4 leukemia, 1.56 µM; in the experiment with SK-OV-3 ovarian, 0.537 µM; with PC-3 prostate, 0.342 µM; in the experiment on SNB-19 CNS, 0.636 µM; with SK-MEL-28 melanoma, 23.7 µM. In addition, the GI50 in the experiment with IGROV1 ovarian is 0.327 µM. Moreover, the TGI in the experiment with DU-145 prostate was 1.49 µM; in the experiment with MOLT-4 leukemia, 8.14 µM; with SK-OV-3 ovarian it was > 100 µM; with PC-3 prostate it was 35.2 µM; in the experiment on SNB-19 CNS, > 100 µM; in the experiment on SK-MEL-28 melanoma, > 100 µM. Moreover, the TGI with IGROV1 ovarian is > 25.1 µM.

In the case of `CCc1c2c(nc3cc4c(c(N)c13)OCO4)-c1cc3c(c(=O)n1C2)COC(=O)[C@]3(O)CC`, the GI50 with DU-145 prostate was < 0.001 µM; in the experiment with MOLT-4 leukemia, < 0.001 µM; in the experiment on SK-OV-3 ovarian it was < 0.001 µM; in the experiment on PC-3 prostate, 0.228 µM and 0.0288 µM; in the experiment with SNB-19 CNS, < 0.001 µM; in the experiment with SK-MEL-28 melanoma, 0.473 µM and 0.249 µM. In addition, the GI50 in the experiment on IGROV1 ovarian was 0.161 µM and 0.128 µM. Also, the TGI was > 100 µM in the experiment with DU-145 prostate; > 100 µM with PC-3 prostate; 0.183 µM in the experiment with SNB-19 CNS; 5.44 µM and 32.4 µM in the experiment with SK-MEL-28 melanoma.

Turning to `O=C(CSc1nc2ccccc2nc1-c1ccccc1)Nc1ccc(Cl)cc1`, the GI50 in the experiment with DU-145 prostate was 55.4 µM; in the experiment on MOLT-4 leukemia it was > 100 µM; in the experiment on SK-OV-3 ovarian, 78.9 µM; in the experiment on PC-3 prostate, 30.6 µM; in the experiment on SNB-19 CNS, 35.9 µM; in the experiment with SK-MEL-28 melanoma, 60.8 µM. In the experiment with IGROV1 ovarian, the GI50 was 46.4 µM. Besides, the TGI in the experiment with DU-145 prostate, in the experiment on MOLT-4 leukemia, in the experiment on SK-OV-3 ovarian, in the experiment with PC-3 prostate, in the experiment on SNB-19 CNS and in the experiment on SK-MEL-28 melanoma was > 100 µM in each case. Further, in the experiment with IGROV1 ovarian, the TGI was > 100 µM.

Take `CC(C)CC1C(=O)N2CCC[C@H]2C2(O)O[C@](NC(=O)C3C=C4c5cccc6[nH]c(Br)c(c56)C[C@H]4N(C)C3)(C(C)C)C(=O)N12` (stereo partly specified): the TGI with DU-145 prostate, with MOLT-4 leukemia, in the experiment with SK-OV-3 ovarian, with PC-3 prostate, in the experiment with SNB-19 CNS and with SK-MEL-28 melanoma was > 100 µM throughout. In addition, the TGI in the experiment on IGROV1 ovarian was > 100 µM. The GI50 was 5.06 µM in the experiment with MOLT-4 leukemia, 9.66 µM in the experiment with SK-OV-3 ovarian, 3 µM in the experiment on PC-3 prostate and 6.79 µM in the experiment with IGROV1 ovarian.

For the molecule `NCCCCCCCCn1c2c(c3ccccc3c1=O)C(=O)c1ccccc1-2`, the GI50 is 3.4 µM in the experiment with DU-145 prostate; 1.82 µM in the experiment on MOLT-4 leukemia; 16.6 µM in the experiment with SK-OV-3 ovarian; 5.05 µM in the experiment with PC-3 prostate; 5.9 µM with SNB-19 CNS; 2.87 µM in the experiment with SK-MEL-28 melanoma. Also, the TGI with DU-145 prostate turned out to be 14 µM; with MOLT-4 leukemia, 3.53 µM; in the experiment with SK-OV-3 ovarian, 39.4 µM; in the experiment with PC-3 prostate it was 23.3 µM; in the experiment on SNB-19 CNS, 80.8 µM; in the experiment with SK-MEL-28 melanoma, 8.47 µM.

For the molecule `NC(=NCCCC1(c2ccccc2)CCCC1)Nc1ccc(Cl)cc1`, the GI50 in the experiment with DU-145 prostate is 1.8 µM; with MOLT-4 leukemia it was 1.58 µM; in the experiment on SK-OV-3 ovarian it was 2.43 µM; in the experiment with PC-3 prostate it was 1.6 µM; in the experiment with SNB-19 CNS it was 1.81 µM. Further, the TGI with DU-145 prostate was 3.29 µM; with MOLT-4 leukemia, 4.11 µM; in the experiment on SK-OV-3 ovarian, 5.59 µM; in the experiment with PC-3 prostate, 3.12 µM; in the experiment with SNB-19 CNS it was 3.98 µM.

Regarding `CCOC(=O)C(Cc1c[nH]c2ccc([N+](=O)[O-])cc12)(NC(C)=O)C(=O)OCC`, the GI50 with DU-145 prostate was > 714 µM; in the experiment with MOLT-4 leukemia, 35.2 µM; with SK-OV-3 ovarian it was 184 µM; in the experiment with SNB-19 CNS, 138 µM; in the experiment with SK-MEL-28 melanoma, 975 µM; with IGROV1 ovarian, 68.7 µM. Further, the TGI is > 1000 µM in the experiment with DU-145 prostate; > 1000 µM in the experiment on MOLT-4 leukemia; > 907 µM with SK-OV-3 ovarian; 598 µM with SNB-19 CNS; > 1000 µM in the experiment with SK-MEL-28 melanoma; > 833 µM with IGROV1 ovarian.

`COc1c2ccoc2cc2oc(=O)ccc12`: the TGI with DU-145 prostate, in the experiment on MOLT-4 leukemia, with PC-3 prostate, in the experiment on SNB-19 CNS, in the experiment with SK-MEL-28 melanoma and in the experiment on IGROV1 ovarian was > 100 µM in each case.

With `O=Nc1ccc(O)c2ccccc12`, the GI50 in the experiment on DU-145 prostate was 1.77 µM; in the experiment on SK-OV-3 ovarian it was 4.93 µM; in the experiment with PC-3 prostate, 1.88 µM; with SNB-19 CNS, 2.31 µM; in the experiment on SK-MEL-28 melanoma, 2.59 µM; in the experiment on IGROV1 ovarian, 1.51 µM. In addition, the TGI in the experiment on DU-145 prostate worked out at 3.22 µM; in the experiment with SK-OV-3 ovarian, 16.3 µM; with PC-3 prostate it was 6.99 µM; with SNB-19 CNS, 6.65 µM; in the experiment with SK-MEL-28 melanoma it was 6.12 µM; with IGROV1 ovarian it was 3.29 µM.

These data come from PubChem BioAssay (NCI).
